Values quoted from earlier work, collected in patent publication US10227355B2, “Quinoline derivatives and preparation thereof” (COUNCIL OF SCIENTIFIC AND INDUSTRIAL RESEARCH, priority 2015, dated 2019).

System: Plasmodium cynomolgi B
Details: intramuscularly, 7 daily doses of 15 mg/kg; observation period of 120 d; rhesus monkeys

SMILES	anti-relapse (curative) activity
CCCCc1cc2c(O)c(C(=O)OC)cnc2cc1OCCOc1ccccc1 [WR 197236, 6-butyl-4-hydroxy-3-methoxycarbonyl-7-β-phenoxyethoxyquinoline]	curative
CCCCCCCCCCOc1cc2c(OC(C)=O)c(C(=O)OC)cnc2cc1OC(C)C [WR 194905, 4-acetoxy-6-decyloxy-7-isopropoxy-3-methoxycarbonylquinoline]	curative
